Measurements taken from US20200140383A1, “2-(4-CHLOROPHENOXY)-N-((1 -(2-(4-CHLOROPHENOXY)ETHYNAZETIDIN-3-YL)METHYL)ACETAMIDE DERIVATIVES AND RELATED COMPOUNDS AS ATF4 INHIBITORS FOR TREATING CANCER AND OTHER DISEASES” (GlaxoSmithKline Intellectual Property Development Limited, priority 2017, published 2020).
“And” between values parts separate entries of the source, which are not always exact repeats. Identical values can stand only once.

System: ATF4 translation (SH-SY5Y-ATF4-NanoLuc cells)
Test: ATF4 cell based assay (ATF4 5'-UTR NanoLuc luciferase reporter, Thapsigargin induced stress)
Conditions: Thapsigargin 200-300 nM for 14-18 hours, average of two or more experimental runs, read-out: average ATF4 pathway inhibitory activity (IC50)
From the text: The ATF4 reporter assay measures the effect of Thapsigargin induced cellular stress on ATF4 expression. For this reporter assay, a stable cell line was created by transfecting SH-SY5Y cells with a plasmid containing the NanoLuc® luciferase gene fused to the 5′-UTR of ATF4, under the control of the CMV promoter. The ATF4 5′-UTR contains two open reading frames which mediate the cellular stress-dependent translation of the reporter gene. Clones stably expressing the reporter construct were isolated and selected based on the luminescence response to thapsigargin and inhibition of this signal by test compounds. Briefly, SH-SY5Y-ATF4-NanoLuc cells were challenged with Thapsigargin for 14-18 hours to determine the stress effect with or without test compounds.
Cells were propagated in growth media consisting of 90% DMEM F12 (InVitrogen #11320-033), 10% Fetal Bovine Serum (Gibco #10438-026), 5 mM Glutamax (Gibco #35050-061), 5 mM Hepes, (Gibco #15630-080), and 0.5 mg/ml Geneticin (Gibco #10131-027). Cells were prepared for the assay by removing all media from cells, washing the plated cells with phosphate buffered saline, and detached by adding a solution comprised of 10% Tryple express solution (InVitrogen12604-021) and 90% enzyme-free cell dissociation buffer HANKS base (Gibco 13150-016). The trypsin was deactivated by adding assay media comprised of 90% phenol-red free DMEM F12 (InVitrogen, 11039), 10% Fetal Bovine Serum (Gibco #10438-026), (5 mM Glutamax (Gibco #35050-061), 5 mM Hepes, (Gibco #15630-080), and 0.5 mg/ml Geneticin (Gibco #10131-027). Suspended cells were spun down at 300 g for 5 min, the supernatant was removed and the cell pellet was suspended in warm media (30-37° C.) comprised as above but without 10% Fetal Bovine Serum to a concentration of 1e6 cells/mi.
Assay plates were prepared by adding 250 nL of compound stock solution in 100% DMSO to each well, followed by dispensing 20 microliters/well cell suspension to deliver 15-20 k cell/well. Cells were incubated for 1 hour at 37° C. Then, 5 μL of 1.5 μM or 1 μM of Thapsigargin (final concentration: 200-300 nM) was added to each well of cells. Assay plates containing cells were incubated for 14-18 hours at 37° C.
The measurement of luciferase produced by the ATF4 constructs was measured as follows. Aliquots of the Nano-Glo reagent (Nano-Glo® Luciferase Assay Substrate, Promega, N113, Nano-Glo® Luciferase Assay Buffer, Promega, N112 (parts of Nano-Glo® Luciferase Assay System, N1150) were brought to room temperature, the substrate and buffer were mixed according to manufacturer's instructions. The cell plates were equilibrated to room temperature. 25 microliters/well of the mixed Nano-Glo reagent were dispensed into assay wells and pulse spun to settle contents and the plate was sealed with film. The plates were incubated at room temperature for 1 hour before detecting luminescence on an EnVision® plate reader.

Compound	IC50
CC(C)(C)OCC(=O)N1CC(CNC(=O)COc2ccc(Cl)cc2)C1 [Example 5, N-((1-(2-(tert-butoxy)acetyl)azetidin-3-yl)methyl)-2-(4-chlorophenoxy)acetamide]	1000 to 8000 nM
O=C(COc1ccc(Cl)cc1)NCC1(F)CN(CCOc2ccc(Cl)cc2)C1 [Example 7, 2-(4-chlorophenoxy)-N-((1-(2-(4-chlorophenoxy)ethyl)-3-fluoroazetidin-3-yl)methyl)acetamide]	1000 to 8000 nM
O=C(COc1ccc(Cl)cc1)NC1CN(CCCOc2ccc(Cl)cc2)C1 [Example 9, 2-(4-chlorophenoxy)-N-(1-(3-(4-chlorophenoxy)propyl)azetidin-3-yl)acetamide]	100 to 1000 nM and 106 nM
O=C(COc1ccc(Cl)cc1)NCC1CN(CCOc2ccc(Cl)cc2)C1 [Example 11, 2-(4-chlorophenoxy)-N-((1-(2-(4-chlorophenoxy)ethyl)azetidin-3-yl)methyl)acetamide]	< 100 nM and 78 nM
CC(C)(C)COC(=O)N1CC(CNC(=O)COc2ccc(Cl)cc2)C1 [Example 19, neopentyl 3-((2-(4-chlorophenoxy)acetamido)methyl)azetidine-1-carboxylate]	1000 to 8000 nM and 1340 nM
O=C(COc1ccc(Cl)cc1)NCC1CN(C(=O)NCc2ccc(Cl)cc2)C1 [Example 20, N-(4-chlorobenzyl)-3-((2-(4-chlorophenoxy)acetamido)methyl)azetidine-1-carboxamide]	1000 to 8000 nM
O=C(COc1ccc(Cl)cc1)NCC1CN(C(CCOc2ccc(Cl)cc2)C(=O)O)C1 (centres unmarked) [Example 21, 4-(4-chlorophenoxy)-2-(3-((2-(4-chlorophenoxy)acetamido)methyl)azetidin-1-yl) butanoic acid]	100 to 1000 nM
COc1ccc(N2CC(CNC(=O)COc3ccc(Cl)cc3)C2)cc1 [Example 22, 2-(4-chlorophenoxy)-N-((1-(4-methoxyphenyl)azetidin-3-yl)methyl)acetamide]	1000 to 8000 nM
O=C(COc1ccc(Cl)cc1)NCC1CN(c2cccnc2)C1 [Example 23, 2-(4-chlorophenoxy)-N-((1-(pyridin-3-yl)azetidin-3-yl)methyl)acetamide]	1000 to 8000 nM

Now from value to molecule:

IC50	Compound
100 to 1000 nM	O=C(COc1ccc(Cl)cc1)NCC1CN(C(=O)COc2ccc(Cl)cc2)C1 [Example 1, 2-(4-chlorophenoxy)-N-((1-(2-(4-chlorophenoxy)acetyl)azetidin-3-yl)methyl)acetamide]
100 to 1000 nM	O=C(COc1ccc(Cl)cc1)NCC1CN(C(=O)CCc2ccc(Cl)cc2)C1 [Example 2, 2-(4-chlorophenoxy)-N-((1-(3-(4-chlorophenyl)propanoyl)azetidin-3-yl)methyl)acetamide]
100 to 1000 nM	O=C(COc1ccc(Cl)cc1)NCC1CN(C(=O)C2CC2c2ccc(Cl)cc2)C1 (centres unmarked) [Example 3, 2-(4-chlorophenoxy)-N-((1-(2-(4-chlorophenyl)cyclopropane-1-carbonyl)azetidin-3-yl)methyl)acetamide]
100 to 1000 nM	O=C(COc1ccc(Cl)cc1)NCCC1CN(C(=O)COc2ccc(Cl)cc2)C1 [Example 4, 2-(4-chlorophenoxy)-N-(2-(1-(2-(4-chlorophenoxy)acetyl)azetidin-3-yl)ethyl)acetamide]
< 100 nM	O=C(COc1ccc(Cl)cc1)NCC1CN(CCCOc2ccc(Cl)cc2)C1 [Example 6, 2-(4-chlorophenoxy)-N-((1-(3-(4-chlorophenoxy)propyl)azetidin-3-yl)methyl)acetamide]
100 to 1000 nM	O=C(COc1ccc(Cl)cc1)NCC1(F)CN(CCCOc2ccc(Cl)cc2)C1 [Example 8, 2-(4-chlorophenoxy)-N-((1-(3-(4-chlorophenoxy)propyl)-3-fluoroazetidin-3-yl)methyl)acetamide]
< 100 nM	O=C(COc1ccc(Cl)cc1)NCC1(O)CN(CCCOc2ccc(Cl)cc2)C1 [Example 10, 2-(4-chlorophenoxy)-N-((1-(3-(4-chlorophenoxy)propyl)-3-hydroxyazetidin-3-yl)methyl)acetamide]
< 100 nM	O=C(COc1ccc(Cl)cc1)NCCC1CN(CCOc2ccc(Cl)cc2)C1 [Example 12, 2-(4-chlorophenoxy)-N-(2-(1-(2-(4-chlorophenoxy)ethyl)azetidin-3-yl)ethyl)acetamide]
< 100 nM	O=C(NCC1CN(CCCOc2ccc(Cl)cc2)C1)C1CCc2cc(Cl)ccc2O1 (centres unmarked) [Example 13, 6-chloro-N-((1-(3-(4-chlorophenoxy)propyl)azetidin-3-yl)methyl)chromane-2-carboxamide]
< 100 nM	O=C(COc1ccc(Cl)cc1)NCC1CN(CCCc2ccc(Cl)cc2)C1 [Example 14, 2-(4-chlorophenoxy)-N-((1-(3-(4-chlorophenyl)propyl)azetidin-3-yl)methyl)acetamide]
100 to 1000 nM	O=C(COc1ccc(Cl)cc1)NCCC1CN(CCCc2ccc(Cl)cc2)C1 [Example 15, 2-(4-chlorophenoxy)-N-(2-(1-(3-(4-chlorophenyl)propyl)azetidin-3-yl)ethyl)acetamide]
100 to 1000 nM	O=C(COc1ccc(Cl)cc1)NCC1CN(C(=O)OCCc2ccc(Cl)cc2)C1 [Example 16, 4-chlorophenethyl 3-((2-(4-chlorophenoxy)acetamido)methyl)azetidine-1-carboxylate]
< 100 nM	O=C(COc1ccc(Cl)cc1)NCC1CN(C(=O)OCCOc2ccc(Cl)cc2)C1 [Example 17, 2-(4-chlorophenoxy)ethyl 3-((2-(4-chlorophenoxy)acetamido)methyl)azetidine-1-carboxylate]
< 100 nM	O=C(COc1ccc(Cl)cc1)NCC1CN(C(=O)OCc2ccc(Cl)cc2)C1 [Example 18, 4-chlorobenzyl 3-((2-(4-chlorophenoxy)acetamido)methyl)azetidine-1-carboxylate]
